Read-outs that look alike come from different tables or passages of the source.
What was measured:
[1] = molecular target: SCD1 (Homo sapiens (Human), UniProt O00767); experiment: Growth inhibition of yeast strain expressing human SCD1 as the sole desaturase; assay type: cell-based
[2] = molecular target: SCD5 (Homo sapiens (Human), UniProt Q86SK9); experiment: Growth inhibition of yeast strain expressing human SCD5 as the sole desaturase; assay type: cell-based
[3] = ole1Δ yeast with human SCD1 plasmid, OD600 growth read at 40 h, top concentration 33.3 μM per method
[4] = ole1Δ yeast with human SCD5 plasmid, OD600 growth read at 40 h, top concentration 33.3 μM per method

Chain of SCD5 (Q86SK9 whole entry): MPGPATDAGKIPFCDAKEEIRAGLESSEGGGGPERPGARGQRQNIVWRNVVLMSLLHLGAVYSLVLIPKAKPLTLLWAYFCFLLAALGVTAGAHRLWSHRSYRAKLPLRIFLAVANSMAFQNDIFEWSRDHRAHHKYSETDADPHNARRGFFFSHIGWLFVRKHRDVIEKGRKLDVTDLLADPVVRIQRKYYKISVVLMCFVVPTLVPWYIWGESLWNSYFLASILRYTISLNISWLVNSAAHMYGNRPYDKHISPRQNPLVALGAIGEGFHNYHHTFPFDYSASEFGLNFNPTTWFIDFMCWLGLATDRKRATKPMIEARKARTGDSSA
Chain of SCD1 (O00767 whole entry): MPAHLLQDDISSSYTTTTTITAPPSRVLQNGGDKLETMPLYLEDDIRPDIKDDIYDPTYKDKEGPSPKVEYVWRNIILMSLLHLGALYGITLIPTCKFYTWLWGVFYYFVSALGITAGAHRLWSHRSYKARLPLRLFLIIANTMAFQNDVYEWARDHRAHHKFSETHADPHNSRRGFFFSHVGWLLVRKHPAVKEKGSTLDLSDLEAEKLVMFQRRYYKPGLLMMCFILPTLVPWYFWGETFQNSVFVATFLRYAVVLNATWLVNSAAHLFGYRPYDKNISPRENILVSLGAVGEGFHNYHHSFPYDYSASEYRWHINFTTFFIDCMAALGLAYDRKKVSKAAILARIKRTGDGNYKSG

Row | Compound | IC50 [1, 3] [nM] | IC50 [2, 4] [nM] | IC50 [1] [nM] | IC50 [2] [nM]
1 | Cn1nc(NC(=O)N2CCC(Oc3cccc(Cl)c3F)CC2)ccc1=O [Compound 77, 4-(3-chloro-2-fluorophenoxy)-N-(1-methyl-6-oxo-1,6-dihydropyridazin-3-yl)piperidine-1-carboxamide] | 910 | 740 | – | –
2 | Cn1nc(NC(=O)N2CCC(Cc3cc(F)cc(F)c3)CC2)ccc1=O [Compound 51, 4-(3,5-difluorobenzyl)-N-(1-methyl-6-oxo-1,6-dihydropyridazin-3-yl)piperidine-1-carboxamide] | – | – | 680 | 60
3 | Cn1nc(NC(=O)N2CCC(Oc3cccc(F)c3Cl)CC2)ccc1=O [Compound 78, 4-(2-Chloro-3-fluorophenoxy)-N-(1-methyl-6-oxo-1,6-dihydropyridazin-3-yl)piperidine-1-carboxamide] | 170 | 10 | – | –
4 | Cn1cc(NC(=O)N2CCC(Cc3cc(F)cc(F)c3)CC2)ccc1=O [Compound 9] | 14400 | 4220 | – | –
5 | Cn1nc(NC(=O)C2CCN(Cc3cccc(Cl)c3)CC2)ccc1=O [Compound 136, 1-(3-chlorobenzyl)-N-(1-methyl-6-oxo-1,6-dihydropyridazin-3-yl)piperidine-4-carboxamide] | > 45000 | > 45000 | – | –
6 | 6-(3-(4-(3,5-difluorobenzyl)piperidin-1-yl)-1,2,4-oxadiazol-5-yl)-2-methylpyridazin-3(2H)-one [Compound 115] | 450 | 10 | – | –

— patent US12268687B2, “Compounds and uses thereof” (JANSSEN PHARMACEUTICA NV, priority 2020, dated 2025)
